US11452710B1, “Micronutrient and plant extract composition and method of improving bone health” (priority 2022, dated 2022)

System: alkaline phosphatase (ALP)
Settings: 0.1-5 μg/ml, 48 h at 37° C., n=4; compared to the control and to the most stimulating agents (boron line 10, MSM line 15)
Method: In vitro differentiation (alkaline phosphatase activity (ALP) and core-binding factor alpha 1 (Cbfa-1) as a marker) assay: Human osteoblasts (1×10^5 cells/well of a 96-well plate) in a 100 μl cell culture medium were exposed to select micronutrients and plant extracts (0.1-5 μg/ml) for 48 h at 37° C., and lysed with assay buffer. Subsequently, 5 mM p-nitrophenyl phosphate (pNPP), as a phosphate substrate for alkaline phosphates, was added into all experimental wells for 1 h, followed by a stop solution. The absorbance was measured at 450 nm within 5 min. using a microplate reader.

Compound	alkaline phosphatase (ALP) activity level in human osteoblasts
CS(C)(=O)=O [MSM, methylsulfonylmethane]	most stimulating agents
boron	most stimulating agents
